# Legend:
# Type in all cases: cell-based, human
# GFX 251 = test: Colony outgrowth assay, patient-derived gastric tumour xenograft cells; design: key to Response to vinblastine / Response to BAL27862: BAL27862-sensitive tumour cells were those that had IC70 values in the low nanomolar range; BAL27862-resistant tumour cells had IC70 values >600 nanomolar; settings: GFX 251, ex vivo colony outgrowth
# Protocol: (§1) Single cell suspensions of patient-derived tumour xenografts (maintained in nude mice) were prepared. For colony outgrowth assays, cells were plated in soft agar in 24-well plates according to the assay introduced by Hamburger & Salmon (Primary bioassay of human tumour stem cells, Science, 1977, 197:461-463). 2×10^4-6×10^4 cells in 0.2 mL medium containing 0.4% agar were plated out on a bottom layer of 0.75% agar. Test compounds were applied in 0.2 mL culture medium. Every 24-well plate contained untreated controls and samples in triplicates. Cultures were incubated at 37° C. and 7.5% CO2 for 5-28 days. 24 hours prior to analysis, vital colonies were stained with a solution of metabolizable tetrazolium salt (Alley M C et al, Life Sci. 1982, 31:3071-3078) and were counted with an automatic image analysis system (Omnicon 3600, Biosys GmbH).
# (§2) Relative drug effects were expressed by the ratio of the mean number of colonies in the treated wells and the control wells. IC70-values were determined by plotting compound concentrations versus relative colony counts.
# (§3) Based on colony outgrowth assays, using tumour cells derived from 8 patient-derived tumours maintained as xenografts in mice, BAL27862-sensitive or resistant tumour cells were identified from gastric cancer, colorectal cancer, melanoma, and lung cancer (see Table 1). In this table, BAL27862-sensitive tumour cells were those that had IC70 values in the low nanomolar range, while BAL27862-resistant tumour cells had IC70 values >600 nanomolar. Paclitaxel and vinblastine data, using the same ex vivo assay, was available for 7 of the 8 tumour models. Of these 7 models, all were resistant to treatment with paclitaxel, while 6 were sensitive to treatment with vinblastine.
# GFX 97 = test: as above; design: key to Response to vinblastine: BAL27862-sensitive tumour cells were those that had IC70 values in the low nanomolar range; BAL27862-resistant tumour cells had IC70 values >600 nanomolar; settings: GFX 97, ex vivo colony outgrowth
# Protocol: as §1, §2, §3
# LXFE 211 = test: Colony outgrowth assay, patient-derived lung tumour xenograft cells; design: key to Response to BAL27862 / Response to vinblastine: BAL27862-sensitive tumour cells were those that had IC70 values in the low nanomolar range; BAL27862-resistant tumour cells had IC70 values >600 nanomolar; settings: LXFE 211, ex vivo colony outgrowth
# Protocol: as §1, §2, §3
# LXFE 397 = test: as above; settings: LXFE 397, ex vivo colony outgrowth
# Protocol: as §1, §2
# Based on colony outgrowth assays, using tumour cells derived from 8 patient-derived tumours maintained as xenografts in mice, BAL27862-sensitive or resistant tumour cells were identified from gastric cancer, colorectal cancer, melanoma, and lung cancer (see Table 1). […]
# MEXF 1341 = test: Colony outgrowth assay, patient-derived melanoma xenograft cells; design: key to Response to BAL27862 / Response to vinblastine: BAL27862-sensitive tumour cells were those that had IC70 values in the low nanomolar range; BAL27862-resistant tumour cells had IC70 values >600 nanomolar; settings: MEXF 1341, ex vivo colony outgrowth
# Protocol: as §1, §2, §3
# MEXF 276 = test: as above; design: key to Response to vinblastine: BAL27862-sensitive tumour cells were those that had IC70 values in the low nanomolar range; BAL27862-resistant tumour cells had IC70 values >600 nanomolar; settings: MEXF 276, ex vivo colony outgrowth
# Protocol: as §1, §2, §3
# CXF 1103 = test: Colony outgrowth assay, patient-derived colorectal cancer xenograft cells; design: key to Response to BAL27862: BAL27862-sensitive tumour cells were those that had IC70 values in the low nanomolar range; BAL27862-resistant tumour cells had IC70 values >600 nanomolar; settings: CXF 1103, ex vivo colony outgrowth
# Protocol: as §1, §2, §3
# CXF 243 = test: as above; design: key to Response to vinblastine: BAL27862-sensitive tumour cells were those that had IC70 values in the low nanomolar range; BAL27862-resistant tumour cells had IC70 values >600 nanomolar; settings: CXF 243, ex vivo colony outgrowth
# Protocol: as §1, §2, §3
# A549 NSCLC cells = test: Immunofluorescent staining of microtubules (anti-alpha-tubulin) in cultured cells; settings: for Microtubule phenotype of mitotic or G2/M arrested cells: 24 hours treatment; for Effect on microtubule phenotype induced by BAL27862: 24 hours BAL27862 with the final 4 hours including the agent
# Protocol: (§4) A549 human non-small cell lung cancer (NSCLC, ATCC reference number CCL-185) cells, HeLa cervical cancer cells (ATCC reference number CCL-2) and SKBR3 breast carcinoma cells (ATCC reference number HTB-30) were seeded at densities of 50% on round microscope coverslips and cultured for 24 hours in RPMI-1640 containing 10% FCS (also referred to as FBS) at 37° C., 5% CO2. Compounds to be tested were dissolved in DMSO. The cell culture medium was replaced with medium containing the diluted compound(s) (paclitaxel, vinblastine, colchicine and nocodazole were purchased from Sigma-Aldrich) or vehicle. After treatment for the times indicated in the Brief Description of the Figures, coverslips were washed and cells were fixed in methanol/acetone (1:1) for 5 minutes at room temperature and subsequently incubated in blocking buffer (0.5% BSA and 0.1% TX-100 in PBS) for 30 minutes at room temperature. Specimens were then incubated with anti-alpha-tubulin antibody (Sigma, 1:2000) for 1 hour at room temperature in blocking buffer. After several washing steps cells were incubated with AlexaFluor-488 goat-anti-mouse IgG (Molecular Probes, 1:3000) for 1 hour at room temperature followed by several washing steps with blocking buffer. Specimens were then mounted with ProLong Gold antifade (Molecular Probes), sealed with nail polish and examined with a Leica immunofluorescence microscope. Images were captured with a cooled CCD-camera and processed by ImageJ software.
# [1] = test system: HeLa cervical cancer cells; test: as above; settings: 50 nM, 24 hours treatment
# Protocol: as §4
# [2] = test system: SKBR3 breast cancer cells; test: as above; settings: SKBR3, 50 nM, 24 hours treatment
# Protocol: as §4
smiles,measurement,setting,value
"N#CCCNc1nonc1-c1nc2ccccc2n1CC(=O)c1ccc(N)cc1 [BAL27862, 3-(4-{1-[2-(4-Amino-phenyl)-2-oxo-ethyl]-1H-benzoimidazol-2-yl}-furazan-3-ylamino)-propionitrile]",IC70 BAL27862,GFX 251,485 nM
same,Response to BAL27862,GFX 251,sensitive
same,IC70 BAL27862,GFX 97,>3500 nM
same,Response to BAL27862,GFX 97,resistant (BAL27862-resistant tumour cells had IC70 values >600 nanomolar)
same,IC70 BAL27862,LXFE 211,21 nM
same,Response to BAL27862,LXFE 211,sensitive
same,IC70 BAL27862,LXFE 397,>3500 nM
same,Response to BAL27862,LXFE 397,resistant (BAL27862-resistant tumour cells had IC70 values >600 nanomolar)
same,IC70 BAL27862,MEXF 1341,25 nM
same,Response to BAL27862,MEXF 1341,sensitive
same,IC70 BAL27862,MEXF 276,>3500 nM
same,Response to BAL27862,MEXF 276,resistant (BAL27862-resistant tumour cells had IC70 values >600 nanomolar)
same,IC70 BAL27862,CXF 1103,22 nM
same,Response to BAL27862,CXF 1103,sensitive
same,IC70 BAL27862,CXF 243,696 nM
same,Response to BAL27862,CXF 243,resistant (BAL27862-resistant tumour cells had IC70 values >600 nanomolar)
same,Microtubule phenotype of mitotic or G2/M arrested cells,"A549 NSCLC cells; A549, 50 nM",dot-like structures
same,Effect on microtubule phenotype induced by conventional microtubule targeting agents,"A549 NSCLC cells; A549, 24 hours vinblastine, colchicine, paclitaxel or nocodazole with the final 4 hours including BAL27862",disruption of the microtubule structures
same,Microtubule phenotype of mitotic or G2/M arrested cells,[1],dot-like structures
same,Microtubule phenotype of mitotic or G2/M arrested cells,[2],dot-like structures
"Nc1ccc(C(=O)Cn2c(-c3nonc3N)nc3ccccc32)cc1 [Compound B, 2-[2-(4-Amino-furazan-3-yl)-benzoimidazol-1-yl]-1-(4-amino-phenyl)-ethanone]",Microtubule phenotype of mitotic or G2/M arrested cells,"A549 NSCLC cells; A549, 80 nM",dot-like structures
"N#CCCNc1nonc1-c1nc2ccccc2n1CC(=O)c1ccc(N)nc1 [Compound C, 3-(4-{1-[2-(6-Amino-pyridin-3-yl)-2-oxo-ethyl]-1H-benzoimidazol-2-yl}-furazan-3-ylamino)-propionitrile]",Microtubule phenotype of mitotic or G2/M arrested cells,"A549 NSCLC cells; A549, 20 nM",dot-like structures
"COc1cc2c(c(OC)c1OC)-c1ccc(OC)c(=O)cc1[C@@H](NC(C)=O)CC2 [colchicine, reference compound]",Effect on microtubule phenotype induced by BAL27862,A549 NSCLC cells; A549,no impact
"COC(=O)Nc1nc2ccc(C(=O)c3cccs3)cc2[nH]1 [nocodazole, reference compound]",Effect on microtubule phenotype induced by BAL27862,A549 NSCLC cells; A549,no impact
"CC(=O)O[C@H]1C(=O)[C@@]2(C)[C@H]([C@H](OC(=O)c3ccccc3)[C@]3(O)C[C@H](OC(=O)[C@H](O)[C@@H](NC(=O)c4ccccc4)c4ccccc4)C(C)=C1C3(C)C)[C@]1(OC(C)=O)CO[C@@H]1C[C@@H]2O [paclitaxel, reference compound]",Response to paclitaxel,GFX 251,resistant (BAL27862-resistant tumour cells had IC70 values >600 nanomolar)
same,Response to paclitaxel,GFX 97,resistant (BAL27862-resistant tumour cells had IC70 values >600 nanomolar)
same,Response to paclitaxel,LXFE 211,resistant (BAL27862-resistant tumour cells had IC70 values >600 nanomolar)
same,Response to paclitaxel,MEXF 1341,resistant (BAL27862-resistant tumour cells had IC70 values >600 nanomolar)
same,Response to paclitaxel,MEXF 276,resistant (BAL27862-resistant tumour cells had IC70 values >600 nanomolar)
same,Response to paclitaxel,CXF 1103,resistant (BAL27862-resistant tumour cells had IC70 values >600 nanomolar)
same,Response to paclitaxel,CXF 243,resistant (BAL27862-resistant tumour cells had IC70 values >600 nanomolar)
same,Effect on microtubule phenotype induced by BAL27862,A549 NSCLC cells; A549,no impact
"CC[C@]1(O)C[C@@H]2CN(CCc3c([nH]c4ccccc34)[C@@](C(=O)OC)(c3cc4c(cc3OC)N(C)[C@H]3[C@@](O)(C(=O)OC)[C@H](OC(C)=O)[C@]5(CC)C=CCN6CC[C@]43[C@@H]65)C2)C1 [vinblastine, reference compound]",Response to vinblastine,GFX 251,sensitive
same,Response to vinblastine,GFX 97,sensitive
same,Response to vinblastine,LXFE 211,sensitive
same,Response to vinblastine,MEXF 1341,sensitive
same,Response to vinblastine,MEXF 276,sensitive
same,Response to vinblastine,CXF 1103,resistant (BAL27862-resistant tumour cells had IC70 values >600 nanomolar)
same,Response to vinblastine,CXF 243,sensitive
same,Effect on microtubule phenotype induced by BAL27862,A549 NSCLC cells; A549,no impact
